{"source": "patent US20250387409A1", "about": "“3-BETA-HYDROXY-3-ALPHA-ETHYL STEROIDS FOR MODULATION OF THE ALPHA-3 SUBTYPE OF THE GABAA RECEPTOR” (priority 2021, published 2025)", "key": {"[1]": {"target": "T1, human α3-β3-γ2L GABAA-receptor subtype (Homo sapiens, UniProt P28472+P34903)", "T1 construct": "expressed in transfected cells", "T1 sequence (P34903 29-492)": "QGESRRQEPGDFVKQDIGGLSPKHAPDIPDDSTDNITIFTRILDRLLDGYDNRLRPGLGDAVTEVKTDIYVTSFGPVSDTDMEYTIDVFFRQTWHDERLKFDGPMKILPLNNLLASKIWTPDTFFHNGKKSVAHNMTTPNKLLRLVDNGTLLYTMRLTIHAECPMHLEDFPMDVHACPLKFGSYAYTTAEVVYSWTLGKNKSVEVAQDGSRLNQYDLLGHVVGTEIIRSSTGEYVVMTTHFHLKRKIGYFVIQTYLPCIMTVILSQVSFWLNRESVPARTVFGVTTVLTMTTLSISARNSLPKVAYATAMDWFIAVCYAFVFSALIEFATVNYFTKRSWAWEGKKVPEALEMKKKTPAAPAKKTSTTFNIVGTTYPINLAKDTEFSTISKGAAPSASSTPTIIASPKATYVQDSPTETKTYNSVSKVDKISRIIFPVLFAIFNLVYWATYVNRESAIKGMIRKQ", "T1 sequence (P28472 26-473)": "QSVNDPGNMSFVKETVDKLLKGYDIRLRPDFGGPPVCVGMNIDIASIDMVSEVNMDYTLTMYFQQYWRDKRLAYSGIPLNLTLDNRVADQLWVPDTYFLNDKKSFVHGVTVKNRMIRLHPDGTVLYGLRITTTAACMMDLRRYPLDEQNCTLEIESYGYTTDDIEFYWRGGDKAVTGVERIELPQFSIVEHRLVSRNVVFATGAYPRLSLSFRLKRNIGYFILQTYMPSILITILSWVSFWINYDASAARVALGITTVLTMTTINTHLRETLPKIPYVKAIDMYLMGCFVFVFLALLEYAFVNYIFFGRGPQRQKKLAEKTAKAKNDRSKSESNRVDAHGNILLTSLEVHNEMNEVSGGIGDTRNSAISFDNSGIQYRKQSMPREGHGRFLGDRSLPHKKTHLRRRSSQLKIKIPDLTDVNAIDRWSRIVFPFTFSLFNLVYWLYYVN", "T1 sequence (P18507 40-475 partner)": "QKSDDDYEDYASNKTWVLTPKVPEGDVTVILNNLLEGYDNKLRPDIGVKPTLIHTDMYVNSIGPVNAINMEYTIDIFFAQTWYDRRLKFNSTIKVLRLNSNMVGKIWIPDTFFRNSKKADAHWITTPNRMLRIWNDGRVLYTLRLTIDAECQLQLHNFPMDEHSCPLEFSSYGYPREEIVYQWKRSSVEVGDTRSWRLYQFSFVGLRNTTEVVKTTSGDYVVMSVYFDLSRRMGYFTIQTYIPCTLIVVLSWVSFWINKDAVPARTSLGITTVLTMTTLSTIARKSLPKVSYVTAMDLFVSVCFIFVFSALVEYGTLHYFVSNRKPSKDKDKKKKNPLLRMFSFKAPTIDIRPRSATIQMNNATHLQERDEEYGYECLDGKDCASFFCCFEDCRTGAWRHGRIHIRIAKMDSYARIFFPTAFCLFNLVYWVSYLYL", "assay": "Patch clamp (Dynaflow) GABA-mediated current response, HEK-293 cells, α3β3γ2L", "format": "cell-based", "settings": "1 μM steroid; essentially as in Example 2", "text": "(§1) In these tests the protocol was optimized to be like the physiological conditions in the synaptic cleft.\n(§2) Preparation of cell lines: HEK-293 cells permanently transfected with the human α1-β2-γ2L, α2-β3-γ2S, α3-ββ3-γ2L, α4-β3-δ or α5-β3-γ2L GABAA-receptor subtypes were used. The cell lines permanently expressing a functional human GABAA-receptor was made in following steps. The human GABAA-receptor subunits e.g. α1 (308-1727 NM_000806), β2 (214-1679 NM_000813), γ2L (290-1785 NM_198904), α2, β3, γ2S, α3, α4, δ and α5 including introduced Kozac sequences just before the start codons were subcloned into mammalian expression vectors containing Geneticin, Hygromycin B, and Zeocin resistance, respectively. A HEK-293 cell line stably expressing the three GABAA-receptor subunits was produced by transfection of the subunits, one at a time. The transfection was followed by selection with the appropriate antibiotics, cell separation with the use of subunit specific antibodies and production of single cell colonies. Produced cell lines were analysed with immunocytochemistry for the three GABAA-receptor subunits, followed by selection of a suitable cell line showing, for the GABAA-receptor normal and good reactivity in a patch-clamp analysis (see below) towards GABA and the GAMS THDOC.\n(§3) Cell culture: HEK-293 cells, permanently transfected with human α1-β2-γ2L, α2-β3-γ2S, α3-β3-γ2L, α4-β3-δ and α5-β3-γ2L GABAA-receptor subtypes, were seeded at a density of 3×10^4/25 cm^2 in cell binding culture flask. The transfected cells were used for patch-clamp experiments 3 days after seeding. When using the cells for patch-clamp experiments the cells were washed twice with oxygen-bubbled EC-solution (see below). About 5 mL EC was then added and the cells were kept in the incubator for about 15 minutes. After 15 minutes the cells came loose from the bottom of the flask and were separated by carefully sucking couple of times with a Pasteur pipette.\n(§4) Dynaflow™ system: Dynaflow™ system with resolve chips was used for all patch-clamp experiments. The resolve chips is made of non-sticky materials. The channel width is 150 μm and the height 50 μm. The well volume is 280 μL. Run time at the flow rate of 26 μL/min is […]. The pump settings were as follow: Omnifix 2 ml syringe with inner diameter of 9.65 mm was used. The syringe pump flow rate of chip was 26 μL/min.\n(§5) Steroids and GABA: GABA was dissolved in EC-solution by ultrasound for about 40 minutes to the concentration of 10 mM in room temperature. All steroids were dissolved to the concentration of 6 mM in dimethyl sulfoxide (DMSO). The DMSO concentration was 0.1% in all end-solutions, including the wash solution (EC) and the solution with GABA alone. End-solutions are the solutions added into the wells of the chip.\n(§6) Electrophysiology: Patch electrodes were pulled from 1.5 mm O.D., 0.86 mm I.D. borosilicate capillary glass without filament. […] The intracellular solution (IC) comprised of (in mM): 140 Cs-gluconate, 3.0 NaCl, 1.2 MgCl2, 1.0 EGTA, 10 HEPES. pH was adjusted to 7.2 with CsOH. The extracellular (EC) solution used during recordings contained (in mM): 137 NaCl, 5.0 KCl, 1.0 CaCl2), 1.2 MgCl2, 10 HEPES, 10 glucose. pH was adjusted with NaOH to 7.4. After compensating for the liquid junction potential, a steady holding potential of −17 mV was used in all experiments. In physiological conditions the HEK-293 has a resting potential at −40 mV and a low concentration of chloride ions inside the cell. By using the holding potential of-17 mV and the intracellular solution with low chloride ion concentration the chloride ions flux into the cell when the receptors are activated. All experiments were performed at room temperature (21 to 23° C.). The following standard protocol was used for all experiments.\n(§7) GABA applications: By using the Dynaflow equipment it is possible to study transfected HEK-293 during almost physiological conditions."}, "[2]": {"target": "T2, GABAA receptor subtype α1β2γ2 (Homo sapiens, UniProt P14867+P47870)", "T2 construct": "expressed in transfected cells", "T2 sequence (P14867 28-456)": "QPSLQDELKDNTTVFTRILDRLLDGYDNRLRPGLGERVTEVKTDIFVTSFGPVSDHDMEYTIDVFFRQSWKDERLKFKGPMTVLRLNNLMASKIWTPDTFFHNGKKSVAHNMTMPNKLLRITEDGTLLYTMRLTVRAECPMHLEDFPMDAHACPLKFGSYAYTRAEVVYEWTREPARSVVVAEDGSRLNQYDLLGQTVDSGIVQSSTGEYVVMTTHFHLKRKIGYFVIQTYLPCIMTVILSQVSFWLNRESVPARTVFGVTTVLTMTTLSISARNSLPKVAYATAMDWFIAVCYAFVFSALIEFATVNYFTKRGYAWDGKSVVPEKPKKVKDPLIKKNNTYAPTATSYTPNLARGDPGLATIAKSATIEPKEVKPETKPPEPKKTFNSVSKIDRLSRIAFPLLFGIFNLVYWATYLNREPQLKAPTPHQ", "T2 sequence (P47870 26-474 isoform P47870-1 limits assumed)": "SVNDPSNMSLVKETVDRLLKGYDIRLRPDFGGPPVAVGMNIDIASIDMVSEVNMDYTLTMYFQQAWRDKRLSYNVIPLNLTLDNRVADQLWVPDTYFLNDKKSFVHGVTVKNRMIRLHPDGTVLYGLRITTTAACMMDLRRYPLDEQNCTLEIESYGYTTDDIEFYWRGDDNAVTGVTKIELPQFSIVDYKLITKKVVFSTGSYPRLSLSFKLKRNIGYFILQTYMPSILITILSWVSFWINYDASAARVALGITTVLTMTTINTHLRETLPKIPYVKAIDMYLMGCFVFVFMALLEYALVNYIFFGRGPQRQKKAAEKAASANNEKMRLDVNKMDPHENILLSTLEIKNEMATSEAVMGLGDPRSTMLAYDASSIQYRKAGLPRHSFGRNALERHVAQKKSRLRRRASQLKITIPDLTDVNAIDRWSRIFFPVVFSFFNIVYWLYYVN", "T2 sequence (P18507 40-475 partner)": "as the sequence (P18507 40-475 partner) above", "assay": "Patch clamp THDOC enhancement of GABA response, α1β2γ2", "format": "cell-based", "settings": "1 μM steroid + THDOC", "text": "as §1\nas §2, with “THDOC. […]” for “THDOC.”"}, "Male Wistar rats [3]": {"system": "Male Wistar rats", "assay": "Weight increase in growing male rats, experiment 1 (IV injections, 5 days)", "format": "in vivo, rat", "settings": "2 mg/kg IV", "method": "(§8) Animals: Male Wistar rats were kept in group cages, with three animals per cage, from delivery and throughout the period of experiments. The individual animals were marked so that they could be identified throughout the experiment duration. The animals weight an average of 152 g upon arrival. A reversed light dark (12:12h) cycle was used with the dark period onset at 0600 hrs. Altogether fifty-six (56) rats were used in this study (experiment 1+2). The animals were delivered from the breeder Taconic (Denmark). The study protocol was approved by the Regional Ethics Committee of Umeå University, Sweden.\n(§9) Feeding: Standard chow and water were available ad libitum. A reversed 12-h dark-light cycle with lights off at 10.00 am and lights on at 22.00 pm was used. For identification, the rats were marked with a permanent marker on the tail. To avoid the endogenous allopregnanolone fluctuations that are present in the oestrous cycle of female rats, male rats were chosen (Frye et al. 2000). The animals were allowed to acclimatize for at least 3 weeks before start of the experimental sessions. During this period, the rats were repeatedly handled and allowed habituation to the new environment and to all new procedures, to minimize stress during the experiments.\n(§10) After 14 days of triad housing, handling and injection training of the animals, the animals were treated for 5 days with IV injections in experiment 1 and 10 days with a daily subcutaneous injection of the assigned treatment in experiment 2 (Tables 4 and 5). The injections were given at 08.00 every morning. The animals were weighed the day before onset of the treatment and at the last day of injection i.e. on the 5th or 10th day of treatment. Weight was taken at the time of the last injection. […] The results are shown in FIG. 3 (experiment 1) and FIG. 4 (experiment 2), respectively."}, "[4]": {"target": "T3, human GABAA-receptor subtype α3β3γ2L (Homo sapiens, UniProt P28472+P34903)", "T3 construct": "expressed in transfected cells", "T3 sequence (P34903 29-492)": "as the sequence (P34903 29-492) above", "T3 sequence (P28472 26-473)": "as the sequence (P28472 26-473) above", "T3 sequence (P18507 40-475 partner)": "as the sequence (P18507 40-475 partner) above", "assay": "Patch clamp (Dynaflow) THDOC enhancement of GABA response, HEK-293 cells, α3β3γ2L", "format": "cell-based", "settings": "1 μM steroid + THDOC", "text": "as §1, §2, §3, §4, §5, §6, §7"}, "Male Wistar rats [5]": {"system": "Male Wistar rats", "assay": "Weight increase in growing male rats, experiment 2 (daily subcutaneous injection, 10 days)", "format": "in vivo, rat", "settings": "for reduced weight versus the E+P control rats / reduction in weight compared to vehicle: 10 days", "method": "as §8, §9, §10"}, "[6]": {"target": "T4, human α1-β2-γ2L GABAA-receptor subtype (Homo sapiens, UniProt P14867+P47870)", "T4 construct": "expressed in transfected cells", "T4 sequence (P14867 28-456)": "as the sequence (P14867 28-456) above", "T4 sequence (P47870 26-474 isoform P47870-1 limits assumed)": "as the sequence (P47870 26-474 isoform P47870-1 limits assumed) above", "T4 sequence (P18507 40-475 partner)": "as the sequence (P18507 40-475 partner) above", "assay": "Patch clamp (Dynaflow) GABA-mediated current response, HEK-293 cells, α1β2γ2L", "format": "cell-based", "settings": "1 μM steroid; essentially as in Example 2", "text": "as §1, §2, §3, §4, §5\nas §6, with “By using the holding potential of-17 mV and the intracellular solution with low chloride ion concentration the chloride ions flux into the cell when the receptors are activated. All experiments were performed at room temperature (21 to 23° C.). The following standard protocol was used for all experiments.” left out"}, "GABAA receptor": {"system": "GABAA receptor", "settings": "table 3 in WO 09/142594; cited from earlier work"}, "[7]": {"settings": "1 mg/kg s.c. + 5 mg/kg progesterone + 10 μg/kg 17β-estradiol"}, "[8]": {"settings": "5 mg/kg s.c. + 5 mg/kg progesterone + 10 μg/kg 17β-estradiol"}}, "data": [{"smiles": "C#C[C@]1(O)CC[C@@]2(C)[C@@H](CC[C@@H]3[C@@H]2CC[C@]2(C)C(=O)CC[C@@H]32)C1", "note": "[3α-ethynyl-3β-hydroxy-5α-androstan-17-one]", "values": [{"measurement": "Effect against GABAs agonistic effect, a3β3γ2", "setting": "[1]", "value": "−46 ± 1.3%,"}, {"measurement": "Antagonism of 100 nM THDOC-enhancement, α1β2γ2", "setting": "[2]", "value": "No effect"}, {"measurement": "increase in weight versus vehicle treated groups", "setting": "Male Wistar rats [3]", "value": "significantly lower"}, {"measurement": "Mean weight increase since arrival. g", "setting": "Male Wistar rats [3]; in 10% β-cyclodextrine 1 ml/kg, first block of Table 6", "value": 97.43, "unit": "g"}, {"measurement": "Mean weight increase since arrival. g", "setting": "Male Wistar rats [3]; second block of Table 6 (increase from start of treatment)", "value": 11.86, "unit": "g"}, {"measurement": "Antagonism of 100 nM THDOC-enhancement, a3β3γ2", "setting": "[4]", "value": "−166 + 19.9%,"}, {"measurement": "reduced weight versus the E+P control rats", "setting": "Male Wistar rats [5]; [7]", "value": "-23.9 ± 4.4", "unit": "g"}, {"measurement": "reduction in weight compared to vehicle", "setting": "Male Wistar rats [5]; [7]", "value": "-33 ± 4.4", "unit": "g"}, {"measurement": "reduced weight versus the E+P control rats", "setting": "Male Wistar rats [5]; [8]", "value": "-20.4 ± 5.2", "unit": "g"}, {"measurement": "reduction in weight compared to vehicle", "setting": "Male Wistar rats [5]; [8]", "value": "-29.6 ± 5.2", "unit": "g"}, {"measurement": "weight difference after 10 days of treatment compared to vehicle", "setting": "Male Wistar rats [5]; 10 days s.c. treatment", "value": "over 20%"}, {"measurement": "Effect against GABAs agonistic effect, α1β2γ2", "setting": "[6]", "value": "−1.9 ± 2.4", "unit": "%"}, {"measurement": "effect as a GAMSA or GAMS", "setting": "GABAA receptor", "value": "no effect as a GAMSA or GAMS"}]}]}
